Structures are written as SMILES.

Assay [1] relates to RAW 264.7 cells. Nature of the assay: Inhibitory effect on NO production (LPS, Griess reagent). Format: cell-based, murine. The settings on record: Mus musculus, RAW264.7, 24 h, Addition 30 μM, LPS 1 μg/ml, read-out: Inihibition (%) of NO production. The method, then: Using RPMI1640 media supplemented with 10% fetal bovine serum (FBS), RAW 264.7 cells (obtained from American Type Culture Collection), a murine macrophage cell line, were cultured at 37° C. in a 5% CO2 incubator. The RAW 264.7 cells were harvested and cell density was adjusted to 5×10^5 cell/ml with a RPMI media supplemented with 0.5% FBS and plated at 5×10^4 cell/well to 96-well plate, which were then cultured for 20 hours in a CO2 incubator. After removal of the media, the cells were pre-treated for 1 hour with fresh media containing 30 μM. The test compounds were dissolved in DMSO and diluted to respective concentration in the media. In order to minimize DMSO effect on the nitric oxide formation by the RAW 264.7 cells in the walls, the media were allowed to contain DMSO at a concentration of 0.1% or less.
After completion of one-hour pre-treatment, Lipopolysaccharide (E. coli serotype 055:B5) was added to activate the cells at a final concentration of 1 μg/ml, which were maintained for 24 hours in a CO2 incubator. As a result of the activation of RAW 264.7 cells with LPS, NO was formed. The NO release into the media was in a form of nitrite (NO2^−) and quantitatively measured using the Griess reagent. A control group was treated only with vehicle instead of test compounds.
The inhibitory effect of the test compounds against NO production were determined as the reduction of NO quantity compared with that of the control group.

For assay [2], the system named is new born rats. Nature of the assay: Protective effect on ischemic-hypoxic brain injury (MRS). The settings on record: for Lip/Cr / Lip/NAA: MRS. In kind it is in vivo, rat. The source says: By using the said report, the protective effect on brain damage induced by hypoxia […] was investigated. [Van der A. Toorn et al. Magnetic Resonance in Medicine, 1996, 36, 914-922]. It was reported that the lipid peak was increased in MRS by ischemic neuronal cell injury due to the destruction of cell membrane including blood-brain barrier. Also, it was reported that increase of lipid concentration was correlated to apoptosis. [A. Bizzi et al., Magnetic Resonance Imaging, 1996, 14, 581-592]. Therefore, it was reported that Lipid/NAA and Lipid/Cr obtained by comparing lipid with N-acetylaspartate (NAA) and creatine (Cr) as marker of neuronal cell was correlated to morphological changes and severity of apoptosis on hypoxic brain damage.
In new born rats (within 7 days, 10˜15 g), left carotid artery were intermitted for 3 hours to induce hypoxia. Test compounds were intraperitoneally injected before 1 hour of hypoxia. […] of which the carotid artery was intermitted was used as ischemic-hypoxic model, right eye of which the carotid artery was not intermitted was used as hypoxic model. Magnetic resonance spectrum was obtained from both models, after histological test, accomplished in one day from damage. From the said result, Lipid/NAA or Lipid/Cr was measured. Also, viability and morphological score by macroscopic observation of infarct volume was calculated.

Assay [3] deals with A7r5 (Rat thoracic aorta smooth muscle cell line, ATCC). As to the kind of experiment: Inhibitory effect on accumulation of reactive oxygen species induced by hydrogen peroxide (DCF fluorescence). Format: cell-based. The settings on record: hydrogen peroxide 50 μM. The method, then:
To measure reactive oxygen species, H2DCFDA (2′,7′-dichlorodihydrofluorescein diacetate, Molecular Probes, Eugene, Oreg., USA) was used. If H2DCFDA, nonpolar material is transferred through cell membrane, it is changed to H2DCF (2′,7′-dichlorodihydrofluorescein), material impermeable to membrane by intracellular esterase. H2DCF is changed to high fluorescent DCF (2′,7′-dichlorofluorescein) by low fluorescent peroxidated oxygen or hydroxyl radical. H2DCFDA solution (10 mM) dissolved in DMSO was used before the experiment. A7r5 (Rat thoracic aorta smooth muscle cell line, ATCC), as smooth muscle cell was incubated in DMEM (Dulbecco's Modified Eagle's Medium) containing 10% of FBS (fetal bovine serum). Thereafter, the cell was incubated in 48 well plate for two days, then was incubated in serum-free DMEM for 24 hours to use for experiment. Krebs-linger buffer (Krebs-Ringer (K-R), 99.01 mM NaCl, 4.69 mM KCl, 1.87 mM CaCl2, 1.2 mM MgSO4, 1.03 mM K2HPO4, 25 mM NaHCO3, 20 mM Hepes, 11.1 mM D-glucose, pH 7.4) was used for washing and process of cell monolayers. After cell monolayers media was removed, each of test compounds (0.2 ml) was pre-treated to media, then incubated at 37° C. for 15 min. Final concentration was 50 μM, hydrogen peroxide was added. The media was allowed to stand for 30 min. The said solution from media was removed. The media was washed one time. H2DCFDA 20 μM was added to the media. The media was allowed to stand for 30 min. the media was washed two times. Thereafter, oxidation of H2DCFDA was measured by Fluorescence reader (FL600, Biotech Instruments, 485 nm excitation, 530 nm emission).

[4] abbreviates: Hypoxic, 50 mg/kg intraperitoneally.

For `COC(OC)[C@@]1(C)Oc2ccc(N)cc2[C@H](N(Cc2nnn(C)n2)c2ccc(Cl)cc2)[C@H]1O` [Example 11, (2S,3R,4S)-6-amino-4-[N-(4-chlorophenyl)-N-(2-methyl-2H-tetrazol-5-ylmethyl)amino]-3-hydroxy-2-methyl-2-dimethoxymethyl-3,4-dihydro-2H-1-benzopyran], the inhibition at 30 µM in assay [1] came out at 27%. Also, the “Survival (%)” value in assay [2] (50 mg/kg) was found to be 79%. Further, the “Survival (animals surviving/total)” value in assay [2] (50 mg/kg) is listed as 19/24. In addition, the Morphological score in assay [2] (50 mg/kg, macroscopic observation of infarct volume) is recorded as 1.4. In addition, the Lip/Cr in assay [2] (setting [4]) was found to be 1.55; in assay [2] (Ischemic-hypoxic, 50 mg/kg intraperitoneally), 5.16. Also, the Lip/NAA in assay [2] (setting [4]) was 1.69; in assay [2] (Ischemic-hypoxic, 50 mg/kg intraperitoneally 1 hour before hypoxia), 5.43. Also, the “Inhibitory(%) against reactive oxygen species accumulation” value in assay [3] (addition 3 μM) is reported as 6%; in assay [3] (addition 10 μM), 82%; in assay [3] (addition 30 μM) it was 124%.

Source of the values: patent US7414068B2, “Benzopyran derivatives substituted with secondary amines including tetrazole, method for the preparation thereof and pharmaceutical compositions containing them” (Dongbu Hannong Chemical Co., Ltd., priority 2002, dated 2008).
